Assay results published in paper PMC4873338 (Neuron, 2016).
Read-outs that look alike come from different tables or passages of the source.

Key:
[1] = tested on: D1-like dopamine receptors in l-LNv; assay: EPAC-FRET cAMP imaging of l-LNv response to dopamine; assay type: cell-based, Drosophila
[2] = tested on: D1-like dopamine receptors in l-LNv; conditions: via one or more D1-like dopamine receptors, ref Shang et al. 2011, Duvall and Taghert, 2012; cited from earlier work
[3] = tested on: dopamine receptor(s) (DA-R) in s-LNv; conditions: for Max Ampl DA ZT4 / Max Ampl DA ZT22 / EC50: Pdf > Epac50A
[4] = tested on: Drosophila D1-like receptors expressed in hEK-293 cells; conditions: hEK-293 cells expressing Drosophila D1-like receptor
[5] = tested on: dopamine receptor(s) (DA-R) in s-LNv; conditions: 2012, cited from earlier work

DA responsiveness after RNAi targeting of AC13E and of ACX-A ([3]; s-LNv, Suppl. Figure 2-top): partially reduced DA responsiveness | attenuation of FRET response after peak ([3]; sustained exposure to DA): rapidly attenuated | time to peak of FRET response ([3]; sustained exposure to DA, relation: within): 1 to 2 min
SMILES: NCCc1ccc(O)c(O)c1 [DA, dopamine]
FRET responses to DA over the 24-hr period ([1]; 3 × 10^−05 M DA, N=33 brains, 178 ROIs, P=0.574): did not significantly vary over the 24-hr time period tested | Max Ampl DA ZT4 ([1]; Pdf > Epac50A, LD 12:12, ZT4): 15.3 ± 1.3 | Max Ampl DA ZT22 ([1]; Pdf > Epac50A, LD 12:12, ZT22): 16.0 ± 1.3 | cAMP increase in vivo [2]: generates cAMP increases in vivo | rhythm of responsiveness to DA ([3]; 3 × 10^−05 M DA, s-LNv, N=36 brains, 124 ROIs): peak phase in synchrony with the peak phase of PDF responsiveness, just after lights-on | Max Ampl DA ZT4 ([3]; s-LNv, LD 12:12, ZT4): 15.3 ± 1.2 | Max Ampl DA ZT22 ([3]; s-LNv, LD 12:12, ZT22): 14.7 ± 2.8 | Max Ampl DA ZT4 ([3]; rala[CA], s-LNv, LD 12:12, ZT4): 14.0 ± 1.4 | Max Ampl DA ZT22 ([3]; rala[CA], s-LNv, LD 12:12, ZT22): 13.6 ± 2.0 | Max Ampl DA ZT4 ([3]; rala[DN], s-LNv, LD 12:12, ZT4): 13.6 ± 1.5 | Max Ampl DA ZT22 ([3]; rala[DN], s-LNv, LD 12:12, ZT22): 14.4 ± 1.9 | EC50 ([3]; read-out: DA EC50 ZT4, rala[CA], s-LNv, LD 12:12, ZT4): 5.7 µM | EC50 ([3]; read-out: DA EC50 ZT4, rala[DN], s-LNv, LD 12:12, ZT4): 29 µM | EC50 ([3]; read-out: DA EC50 ZT22, rala[CA], s-LNv, LD 12:12, ZT22): 6.4 µM | β-ARR2-GFP translocation [4]: potently recruited β-ARR2-GFP translocation | DA responsiveness on over-expression of AC3 ([5]; s-LNv, ref Duvall and Taghert): no effect on DA responsiveness | cAMP increase in vivo ([5]; small LNv, ref Shang et al. 2011, Duvall and Taghert): generates cAMP increases in vivo
